ChEMBL document CHEMBL1138430, “Novel tetrahydroisoquinolines are histamine H3 antagonists and serotonin reuptake inhibitors” (Bioorg Med Chem Lett, 2007)
Activity calls are given as the source filed them.

Key:
[1] = molecular target: 5-hydroxytryptamine receptor 2A (Homo sapiens) (UniProt P28223); assay: Binding affinity at 5HT2A receptor at 1 uM
[2] = molecular target: Mu-type opioid receptor (Homo sapiens) (UniProt P35372); assay: Binding affinity at MOP receptor at 1 uM
[3] = molecular target: 5-hydroxytryptamine receptor 7 (Homo sapiens) (UniProt P34969); assay: Binding affinity at 5HT7 receptor at 1 uM
[4] = molecular target: Muscarinic acetylcholine receptor M3 (Homo sapiens) (UniProt P20309); assay: Binding affinity at muscarinic M3 receptor at 1 uM
[5] = molecular target: Adenosine receptor A2a (Homo sapiens) (UniProt P29274); assay: Binding affinity at adenosine A2A receptor at 1 uM
[6] = molecular target: T1, B2 bradykinin receptor (Homo sapiens) (UniProt P30411); assay: Binding affinity at bradykinin B2 receptor at 1 uM
T1 sequence (whole entry): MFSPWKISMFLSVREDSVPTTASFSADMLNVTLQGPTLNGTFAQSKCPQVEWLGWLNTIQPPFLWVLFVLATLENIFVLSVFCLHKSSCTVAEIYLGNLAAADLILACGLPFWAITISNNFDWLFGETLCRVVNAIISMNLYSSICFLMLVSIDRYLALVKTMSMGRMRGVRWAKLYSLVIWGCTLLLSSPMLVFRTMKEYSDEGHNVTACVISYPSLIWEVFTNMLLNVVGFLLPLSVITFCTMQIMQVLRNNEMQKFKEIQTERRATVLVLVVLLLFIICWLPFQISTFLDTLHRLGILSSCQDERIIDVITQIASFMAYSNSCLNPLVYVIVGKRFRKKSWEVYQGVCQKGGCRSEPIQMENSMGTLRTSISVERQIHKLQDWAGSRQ

[7] = molecular target: T2, 5-hydroxytryptamine receptor 3A (Homo sapiens) (UniProt P46098); assay: Binding affinity at 5HT3 receptor at 1 uM
T2 sequence (whole entry): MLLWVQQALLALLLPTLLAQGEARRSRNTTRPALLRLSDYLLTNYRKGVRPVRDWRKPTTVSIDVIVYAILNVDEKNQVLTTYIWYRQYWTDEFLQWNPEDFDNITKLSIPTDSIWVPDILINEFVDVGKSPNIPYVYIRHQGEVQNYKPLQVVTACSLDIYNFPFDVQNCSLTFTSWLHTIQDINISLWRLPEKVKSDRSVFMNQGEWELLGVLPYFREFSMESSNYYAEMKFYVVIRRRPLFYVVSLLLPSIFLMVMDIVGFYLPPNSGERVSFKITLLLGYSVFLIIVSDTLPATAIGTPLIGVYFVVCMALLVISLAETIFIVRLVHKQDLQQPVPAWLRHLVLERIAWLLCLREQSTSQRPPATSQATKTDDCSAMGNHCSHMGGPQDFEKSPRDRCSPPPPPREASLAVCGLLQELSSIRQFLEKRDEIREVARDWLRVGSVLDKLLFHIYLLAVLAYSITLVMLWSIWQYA

[8] = molecular target: Kappa-type opioid receptor (Homo sapiens) (UniProt P41145); assay: Binding affinity at KOP receptor at 1 uM
[9] = molecular target: T3, Galanin receptor type 2 (Homo sapiens) (UniProt O43603); assay: Binding affinity at galanin 2 receptor at 1 uM
T3 sequence (whole entry): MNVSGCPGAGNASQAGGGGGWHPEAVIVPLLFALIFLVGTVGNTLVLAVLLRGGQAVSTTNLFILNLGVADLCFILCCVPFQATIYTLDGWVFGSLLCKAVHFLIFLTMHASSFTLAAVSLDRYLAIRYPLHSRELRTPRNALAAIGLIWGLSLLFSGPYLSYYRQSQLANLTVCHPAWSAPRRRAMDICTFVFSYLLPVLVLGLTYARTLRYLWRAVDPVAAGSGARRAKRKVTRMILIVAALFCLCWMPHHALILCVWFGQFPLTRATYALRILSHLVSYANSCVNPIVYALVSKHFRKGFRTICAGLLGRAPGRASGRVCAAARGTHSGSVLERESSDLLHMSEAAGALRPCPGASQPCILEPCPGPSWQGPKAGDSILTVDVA

[10] = molecular target: T4, 5-hydroxytryptamine receptor 1A (Homo sapiens) (UniProt P08908); assay: Binding affinity at 5HT1A receptor at 1 uM
T4 sequence (whole entry): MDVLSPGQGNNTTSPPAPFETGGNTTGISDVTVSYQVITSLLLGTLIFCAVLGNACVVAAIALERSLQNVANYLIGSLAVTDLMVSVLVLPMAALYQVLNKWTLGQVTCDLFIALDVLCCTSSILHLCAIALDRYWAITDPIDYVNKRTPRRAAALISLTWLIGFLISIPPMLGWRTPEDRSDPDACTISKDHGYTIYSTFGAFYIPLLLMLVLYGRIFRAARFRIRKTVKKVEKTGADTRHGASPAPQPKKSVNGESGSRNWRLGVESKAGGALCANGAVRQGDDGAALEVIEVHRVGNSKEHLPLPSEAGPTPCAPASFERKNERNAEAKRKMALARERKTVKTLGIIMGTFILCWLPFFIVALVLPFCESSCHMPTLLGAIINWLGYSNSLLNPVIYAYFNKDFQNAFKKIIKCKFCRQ

[11] = molecular target: T5, Adenosine receptor A1 (Homo sapiens) (UniProt P30542); assay: Binding affinity at adenosine A1 receptor at 1 uM
T5 sequence (whole entry): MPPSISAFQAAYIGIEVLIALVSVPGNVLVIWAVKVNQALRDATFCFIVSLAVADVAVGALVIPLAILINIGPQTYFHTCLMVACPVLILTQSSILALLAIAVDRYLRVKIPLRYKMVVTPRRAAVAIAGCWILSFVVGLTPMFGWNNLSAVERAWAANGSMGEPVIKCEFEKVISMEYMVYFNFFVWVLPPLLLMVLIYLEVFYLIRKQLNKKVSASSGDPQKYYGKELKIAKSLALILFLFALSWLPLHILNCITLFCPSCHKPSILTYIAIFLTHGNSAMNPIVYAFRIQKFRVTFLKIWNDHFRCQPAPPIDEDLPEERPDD

[12] = molecular target: T6, Muscarinic acetylcholine receptor M1 (Homo sapiens) (UniProt P11229); assay: Binding affinity at muscarinic M1 receptor at 1 uM
T6 sequence (whole entry): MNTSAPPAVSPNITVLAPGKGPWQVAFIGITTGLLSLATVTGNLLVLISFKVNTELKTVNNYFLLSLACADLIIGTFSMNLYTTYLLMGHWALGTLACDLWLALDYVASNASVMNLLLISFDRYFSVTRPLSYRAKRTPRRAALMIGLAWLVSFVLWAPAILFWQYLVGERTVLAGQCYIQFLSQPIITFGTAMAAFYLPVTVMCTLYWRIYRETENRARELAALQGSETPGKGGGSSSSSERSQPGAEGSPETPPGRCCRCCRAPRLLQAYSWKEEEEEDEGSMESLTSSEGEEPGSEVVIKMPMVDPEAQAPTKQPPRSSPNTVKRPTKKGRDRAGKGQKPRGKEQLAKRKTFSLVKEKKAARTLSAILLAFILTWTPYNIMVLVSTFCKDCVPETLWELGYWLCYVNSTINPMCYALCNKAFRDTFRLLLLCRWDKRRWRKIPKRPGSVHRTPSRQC

[13] = molecular target: D(2) dopamine receptor (Homo sapiens) (UniProt P14416); assay: Binding affinity at dopamine D2 receptor at 1 uM

Measured: Activity

Sequence of D(2) dopamine receptor (Homo sapiens) (P14416 whole entry): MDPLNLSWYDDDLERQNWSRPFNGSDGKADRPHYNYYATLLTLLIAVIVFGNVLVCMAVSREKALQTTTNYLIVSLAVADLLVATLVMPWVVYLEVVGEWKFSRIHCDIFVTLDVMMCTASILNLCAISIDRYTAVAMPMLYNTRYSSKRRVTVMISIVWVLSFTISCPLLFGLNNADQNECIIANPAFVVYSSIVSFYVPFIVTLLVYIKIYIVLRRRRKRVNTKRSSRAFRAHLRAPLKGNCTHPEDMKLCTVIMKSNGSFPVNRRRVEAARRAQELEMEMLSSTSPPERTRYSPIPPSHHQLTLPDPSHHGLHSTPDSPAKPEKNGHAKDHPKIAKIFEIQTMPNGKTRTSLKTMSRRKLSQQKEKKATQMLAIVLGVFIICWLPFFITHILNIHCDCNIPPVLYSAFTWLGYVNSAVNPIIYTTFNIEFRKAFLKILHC
Sequence of Muscarinic acetylcholine receptor M3 (Homo sapiens) (P20309 whole entry, looked up): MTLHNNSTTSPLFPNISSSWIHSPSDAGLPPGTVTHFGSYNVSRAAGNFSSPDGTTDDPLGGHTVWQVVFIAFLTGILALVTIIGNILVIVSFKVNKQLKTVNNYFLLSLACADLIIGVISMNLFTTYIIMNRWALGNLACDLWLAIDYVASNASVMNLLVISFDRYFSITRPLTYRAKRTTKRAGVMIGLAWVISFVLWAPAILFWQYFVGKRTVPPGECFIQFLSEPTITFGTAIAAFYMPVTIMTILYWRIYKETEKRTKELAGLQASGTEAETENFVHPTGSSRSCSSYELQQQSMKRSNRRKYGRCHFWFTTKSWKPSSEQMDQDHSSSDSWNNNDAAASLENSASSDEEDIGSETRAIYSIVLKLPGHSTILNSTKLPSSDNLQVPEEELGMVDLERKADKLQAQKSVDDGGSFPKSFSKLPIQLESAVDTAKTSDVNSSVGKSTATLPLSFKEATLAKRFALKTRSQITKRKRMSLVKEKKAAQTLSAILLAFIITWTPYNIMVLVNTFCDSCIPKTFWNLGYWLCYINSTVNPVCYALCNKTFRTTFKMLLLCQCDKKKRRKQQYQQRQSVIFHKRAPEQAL
Sequence of 5-hydroxytryptamine receptor 7 (Homo sapiens) (P34969 whole entry): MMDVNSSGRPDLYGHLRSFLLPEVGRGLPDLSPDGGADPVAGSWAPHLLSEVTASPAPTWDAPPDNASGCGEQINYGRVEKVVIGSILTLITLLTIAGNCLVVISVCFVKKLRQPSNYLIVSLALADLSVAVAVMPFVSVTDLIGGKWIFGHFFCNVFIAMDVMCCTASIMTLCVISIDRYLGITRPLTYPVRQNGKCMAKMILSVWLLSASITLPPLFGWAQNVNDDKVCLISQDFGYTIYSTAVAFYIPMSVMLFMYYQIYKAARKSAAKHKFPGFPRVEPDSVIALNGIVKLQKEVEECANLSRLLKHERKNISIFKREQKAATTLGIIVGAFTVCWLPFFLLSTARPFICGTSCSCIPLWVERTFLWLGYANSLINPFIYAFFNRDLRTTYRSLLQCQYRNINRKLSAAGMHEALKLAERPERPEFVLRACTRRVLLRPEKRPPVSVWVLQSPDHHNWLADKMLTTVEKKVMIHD
Sequence of Kappa-type opioid receptor (Homo sapiens) (P41145 whole entry): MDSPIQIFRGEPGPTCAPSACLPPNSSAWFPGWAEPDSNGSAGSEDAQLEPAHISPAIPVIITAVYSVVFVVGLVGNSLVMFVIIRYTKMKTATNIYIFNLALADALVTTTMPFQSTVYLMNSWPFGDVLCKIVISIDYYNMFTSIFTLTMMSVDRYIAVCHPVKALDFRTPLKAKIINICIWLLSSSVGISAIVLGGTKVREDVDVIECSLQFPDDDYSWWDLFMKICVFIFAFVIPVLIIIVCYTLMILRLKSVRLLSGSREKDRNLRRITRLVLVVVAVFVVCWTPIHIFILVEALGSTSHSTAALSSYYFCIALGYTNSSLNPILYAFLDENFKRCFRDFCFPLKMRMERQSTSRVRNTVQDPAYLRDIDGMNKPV
Sequence of Adenosine receptor A2a (Homo sapiens) (P29274 whole entry): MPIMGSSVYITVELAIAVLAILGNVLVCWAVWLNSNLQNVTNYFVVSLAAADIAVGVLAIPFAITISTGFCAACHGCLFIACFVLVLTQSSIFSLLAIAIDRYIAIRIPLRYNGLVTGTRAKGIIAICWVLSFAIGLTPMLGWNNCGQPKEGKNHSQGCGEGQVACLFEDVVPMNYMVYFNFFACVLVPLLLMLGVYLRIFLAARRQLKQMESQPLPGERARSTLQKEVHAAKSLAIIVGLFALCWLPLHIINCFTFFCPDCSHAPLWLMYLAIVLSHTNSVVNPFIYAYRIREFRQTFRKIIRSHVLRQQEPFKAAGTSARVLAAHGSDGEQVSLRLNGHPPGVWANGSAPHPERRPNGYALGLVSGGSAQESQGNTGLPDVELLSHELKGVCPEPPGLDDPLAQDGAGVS
Sequence of Mu-type opioid receptor (Homo sapiens) (P35372 whole entry): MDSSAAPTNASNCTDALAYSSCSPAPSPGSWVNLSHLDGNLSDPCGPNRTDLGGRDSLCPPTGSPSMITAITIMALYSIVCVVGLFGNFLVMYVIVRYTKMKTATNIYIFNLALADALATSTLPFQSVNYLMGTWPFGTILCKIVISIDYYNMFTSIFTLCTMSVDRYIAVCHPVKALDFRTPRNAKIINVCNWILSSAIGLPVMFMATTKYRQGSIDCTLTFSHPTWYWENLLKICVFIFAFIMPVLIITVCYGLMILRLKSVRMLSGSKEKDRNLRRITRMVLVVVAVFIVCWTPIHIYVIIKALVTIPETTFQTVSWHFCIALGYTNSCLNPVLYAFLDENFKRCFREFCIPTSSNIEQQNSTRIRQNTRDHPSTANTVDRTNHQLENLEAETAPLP
Sequence of 5-hydroxytryptamine receptor 2A (Homo sapiens) (P28223 whole entry): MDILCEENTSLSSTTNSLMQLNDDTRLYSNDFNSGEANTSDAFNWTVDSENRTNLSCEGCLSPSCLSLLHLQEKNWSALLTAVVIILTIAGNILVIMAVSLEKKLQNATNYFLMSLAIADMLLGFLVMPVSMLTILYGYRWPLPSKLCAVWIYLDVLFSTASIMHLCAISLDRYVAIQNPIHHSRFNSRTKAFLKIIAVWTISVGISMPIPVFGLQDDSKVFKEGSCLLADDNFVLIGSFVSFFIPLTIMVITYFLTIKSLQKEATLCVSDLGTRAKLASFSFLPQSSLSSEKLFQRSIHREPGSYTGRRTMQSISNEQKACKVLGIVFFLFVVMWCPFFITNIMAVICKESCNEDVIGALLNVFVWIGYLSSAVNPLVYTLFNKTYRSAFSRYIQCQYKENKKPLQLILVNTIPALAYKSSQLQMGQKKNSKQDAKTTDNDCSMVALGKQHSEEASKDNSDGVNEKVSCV

COc1ccc([C@@H]2CN(C)Cc3cc(OCCCN4CCOC[C@@H]4C)ccc32)cc1
inactive: all assays above

CSc1ccc(C2CN(C)Cc3cc(OCCCN4CCOCC4)ccc32)cc1 (racemic)
inactive: all assays above

CSc1ccc(C2CN(C)Cc3cc(OCCCN4CCC(F)CC4)ccc32)cc1 (racemic)
inactive: all assays above
